Reference: patent publication US4775676A, “Thiazolidine derivatives, process for their preparation and pharmaceutical compositions” (Chiesi Farmaceutici S.p.A., priority 1985, dated 1988)
Structures can show the parent of a compound that is named as a salt.

Legend:
[1] = Toxicity after single administration; assay type: in vivo; conditions: mouse, in vivo, po, mice, p.o., death-rate after 7 days, read-out: Acute toxicity LD50 approx.
Description: (§1) Toxicity after single administration
(§2) IVA:NMRI (SPF) mice, fasted for 18 hours before treatment with water ad libitum, were used. The compounds, dissolved or suspended in a 0.2% Tween® 80 aqueous solution, were administered orally, at constant concentration (10%). According to the death-rate observed after 7 days from treatment, the approximate LD50 values, reported in Table 1, were interpolated on Probi ts chart.

porcine gastric mucine = experiment: "In vitro" mucolytic activity (viscoelasticity of porcine gastric mucine); assay type: biochemical; conditions: 6% porcine gastric mucine, 25° C., 30 minutes, 0.075 Hz, versus control
Description: "In vitro" mucolytic activity
Control samples were similarly added with the vehicle only. After incubation at 25° C. for 30 minutes, the analysis of the rheologic characteristics was carried out by means of Contraves Low-Shear 30 sinus viscosimeter provided with an oscillating device for the study of the viscoelasticity. The dynamic measurements of the viscoelasticity were carried out at a single frequency (0.075 Hz), using an appropriate concentrical cylinder measurement system, particularly suited for bronchial mucus (Contraves MS-LS 1-1).
The rheogramm was recorded on X/Y Rikadenki 11T recorder and the […] determination was carried out by means of vectorial calculation.
The percent decreases versus control samples, reported in Table 1, were determined from the means of the values of said parameters (at least 7 replications per sample).

respiratory tract = experiment: Mucosecretodynamic activity, "in vivo" fluorescein test; parameters: species or system male IVA-NMRI (SPF) mice; conditions: mice, p.o., 90 minutes before i.v. fluorescein, increase of fluorescein excretion; for ED50: Mus musculus, po
Description: Mucosecretodynamic activity
Male IVA-NMRI (SPF) mice, housed for at least 1 week under standard conditions, fasted (water ad libitum) for 18 hours before treatment, were used.
The compounds, dissolved or suspended in 20 ml/kg of a 0.2% Tween® 80 aqueous suspension, were administred orally 90 minutes before the intravenous injection of 1% (5 ml/kg) fluorescein. Animals treated p.o. with the only vehicle were used as a control group. After 30 minutes from the fluorescein injection the animals were killed and subjected to incannulation of the trachea. Then the respiratory tract was washed and the spectrophotometric dosage of the fluorescein was carried out against phosphate buffer on the so collected eluate, suitably diluted with phosphate buffer and centrifugated.
The amount of fluorescein was determined by means of a calibration curve prepared under the same experimental conditions and the excretion was expressed as ng/hour/10 g body weight. For each experimental session the percent increases of excretion versus controls were calculated.

mice = experiment: Toxicity after single administration; assay type: in vivo; conditions: p.o., death-rate after 7 days
Description: as §1, §2

| Molecule | LD50 at 168 h [1] | "in vitro" % decrease elasticity (G') (porcine gastric mucine) | "in vitro" % decrease viscosity (.eta.) (porcine gastric mucine) | ED50 (respiratory tract) | other results |
| --- | --- | --- | --- | --- | --- |
| CCC1SCCN1C(=O)C1C2C=CC(C2)C1C(=O)O (centres unmarked) [Compound 2, 3-[3-[(2-Ethyl)-thiazolidine]carbonyl]-bicyclo-[2,2,1]-hepta-5-ene-2-carboxylic acid] | ~3000 mg/kg | 33% | 58% | – | – |
| CC(SCC(=O)N1CCSC1)C(=O)NCC(=O)O (centres unmarked) [Compound 9, 2-[2-[(3-thiazolidyl)carbonylmethylthio]-propionamide]acetic acid] | > 4000 mg/kg | 21% | 40% | – | – |
| 4-methyl-2-[(3-thiazolidyl)carbonyl]-cyclohexane-carboxylic acid lysine salt [Compound 11] | – | 6% | 9% | – | "in vivo" fluorescein test ED50 (respiratory tract): 300 mg/kg; Acute toxicity LD50 approx. (mice): > 4000 mg/kg |
| O=C(O)CCC(=O)N1CCSC1 [Compound 10, 4-oxo-4-(3-thiazolidyl)butanoic acid sodium salt] | – | – | – | – | Acute toxicity LD50 approx. (mice; sodium salt, 10080 min): > 4000 mg/kg |
| CC(=O)N[C@@H](CS)C(=O)O [N-acetyl-L-cysteine, N--acetyl-L-cysteine, reference compound] | – | 39% | 53% | – | – |
| O=C(O)C1C2C=CC(C2)C1C(=O)N1CCSC1 (centres unmarked) [Compound 3, 3-[(3-thiazolidyl)-carbonyl]-bicyclo-[2,2,1]-hepta-5-ene-2-carboxylic acid] | ~1500 mg/kg | – | – | 170 mg/kg | – |
| CC1(C(=O)N2CCSC2)CCC(C(=O)O)C1(C)C (centres unmarked) [Compound 12, -3-[(3-thiazolidyl)-carbonyl]-2,2,3-trimethyl-cyclopentanecarboxylic acid lysine salt] | > 4000 mg/kg | 13% | 0% | 310 mg/kg | – |
| N[C@@H](CSCC(=O)N1CCSC1)C(=O)O [Compound 8, 2-Amino-3-[[(3-thiazolidyl)-carbonylmethyl]thio]propionic acid] | > 4000 mg/kg | – | – | – | – |
| O=C(O)CCC(=O)N1CCSC1 [Compound 4, 4-oxo-4-(3-thiazolidyl)-butanoic acid] | ~4000 mg/kg | – | – | – | – |
| O=C(CCC(=O)N1CCSC1)N1CCSC1 [Compound 7, 1,4-Bis-(3-thiazolidyl)-1,4-dioxo-butane] | ~3000 mg/kg | – | – | ~750 mg/kg | – |
